# From patent US11198695B2, “Fused ring derivative having MGAT-2 inhibitory activity” (Shionogi & Co., Ltd., priority 2017, dated 2021)
# Target: recombinant human MGAT2 (Homo sapiens (Human), UniProt Q3SYC2)
# Assay: Measurement of human MGAT2 inhibitory activity
# Assay type: biochemical
# Conditions: read-out: IC50 (concentration exhibiting 50% enzyme inhibition), Table 52
# Procedure, shortened: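 RapidFire ESI-MS read-out of the diolein/diolein-d5 peak ratio gave % inhibition, with no-enzyme and full-enzyme wells as 100% and 0%. Reactions ran 1 h at room temperature at pH 7.4 (phosphate, 2 mmol/L DTT), using Flag-tagged human MGAT2 membranes from Sf9 cells and a substrate solution of 30 μmol/L 2-oleoylglycerol and 10 μmol/L oleoyl-CoA.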
# Chain of recombinant human MGAT2 (Q3SYC2 whole entry): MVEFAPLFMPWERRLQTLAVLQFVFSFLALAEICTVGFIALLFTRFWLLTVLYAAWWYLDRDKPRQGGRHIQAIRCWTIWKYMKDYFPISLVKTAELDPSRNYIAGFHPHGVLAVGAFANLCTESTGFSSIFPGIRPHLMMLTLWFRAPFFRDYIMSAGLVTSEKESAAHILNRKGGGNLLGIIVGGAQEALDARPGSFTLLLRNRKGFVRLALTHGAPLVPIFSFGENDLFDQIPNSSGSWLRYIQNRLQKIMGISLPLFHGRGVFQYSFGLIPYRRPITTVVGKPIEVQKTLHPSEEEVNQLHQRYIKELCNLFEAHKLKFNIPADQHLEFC
row,IC50 [nM],SMILES
1,340,CS(=O)(=O)CC(=O)Nc1c2c(nn1CC1CCC(C(F)(F)F)CC1)C[C@]1(CCc3cc(OCCCC(F)(F)F)ccc31)NC2=O (stereo partly drawn) [Compound I-61]
2,760,O=C1N[C@@]2(CCc3cc(OCC(F)(F)F)cc(F)c32)Cc2nn(-c3ccccn3)c(-c3nnn[nH]3)c21 [Compound I-107]
3,9.8,CS(=O)(=O)CC(=O)Nc1c2c(nn1-c1ccccn1)C[C@@]1(CCc3cc(OCC(F)(F)F)cc(F)c31)NC2=O [Compound I-169]
4,72,CS(=O)(=O)CC(=O)Nc1c2c(nn1CCC1CC1)C[C@]1(CCc3cc(CN4CC(F)(F)C4)ccc31)NC2=O [Compound I-281]
5,24,CC(C)(O)c1ccc(-n2nc3c(c2NC(=O)CS(C)(=O)=O)C(=O)N[C@@]2(CCc4cc(OCCCC(F)(F)F)ccc42)C3)cc1 [Compound I-197]
6,810,O=C1N[C@@]2(CCc3cc(OCC(F)(F)F)ccc32)Cc2nn(CCC3CC3)c(C(=O)NS(=O)(=O)C3CCCC3)c21 [Compound I-113]
7,190,CS(=O)(=O)NCc1c2c(nn1CCC1CC1)C[C@]1(CCc3cc(OCCCC(F)(F)F)ccc31)NC2=O [Compound I-22]
8,600,O=C(NCc1c2c(nn1CCC1CC1)C[C@]1(CCc3cc(OCC(F)(F)F)ccc31)NC2=O)c1cnco1 [Compound I-159]
9,420,O=C(Nc1c2c(nn1CCC1CC1)C[C@]1(CCc3cc(OCC(F)(F)F)ccc31)NC2=O)c1ncccn1 [Compound I-215]
10,860,O=C(Nc1c2c(nn1CCC1CC1)C[C@]1(CCc3cc(OCC(F)(F)F)ccc31)NC2=O)c1ccccn1 [Compound I-79]
11,450,O=C1N[C@@]2(CCc3cc(OCC(F)(F)F)ccc32)Cc2nn(CCC3CC3)c(CNS(=O)(=O)C3CC3)c21 [Compound I-195]
12,920,O=C1N[C@@]2(CCc3cc(OCC(F)(F)F)ccc32)Cc2nn(CCC3CC3)c(CNC(=O)C3(O)CC3)c21 [Compound I-156]
13,46,CCS(=O)(=O)NC(=O)c1c2c(nn1CCC1CC1)C[C@]1(CCc3cc(OCC(F)(F)F)ccc31)NC2=O [Compound I-120]
14,190,O=C1N[C@@]2(CCc3cc(OCC(F)(F)F)ccc32)Cc2nn(CCC3CC3)c(C(=O)O)c21 [Compound I-187]
15,6.9,Cc1ccc(-n2nc3c(c2NC(=O)CS(C)(=O)=O)C(=O)N[C@@]2(CCc4cc(OCC(F)(F)F)ccc42)C3)cc1 [Compound I-97]
16,1.2,CS(=O)(=O)CC(=O)Nc1c2c(nn1-c1ccc(Br)cn1)C[C@]1(CCc3cc(OCC(F)(F)F)ccc31)NC2=O [Compound I-91]

row,IC50 [nM],SMILES
1,660,CS(=O)(=O)CC(=O)Nc1nn(CCC2CCCCC2)c2c1C(=O)N[C@@]1(CCc3cc(OCCCC(F)(F)F)ccc31)C2 [Compound I-65]
2,17,CS(=O)(=O)CC(=O)NCc1c2c(nn1CCC1CC1)C[C@]1(CCc3cc(OCCCC(F)(F)F)ccc31)NC2=O [Compound I-21]
3,10,CC(C)c1ccc(-n2nc3c(c2NC(=O)CS(C)(=O)=O)C(=O)N[C@@]2(CCc4cc(OCC(F)(F)F)ccc42)C3)nc1 [Compound I-238]
4,3.6,CS(=O)(=O)CC(=O)Nc1c2c(nn1-c1ccc(C#N)cn1)C[C@@]1(CCc3cc(C4CC4)ccc31)NC2=O [Compound I-242]
5,6.1,Cc1cccc(-n2nc3c(c2NC(=O)CS(C)(=O)=O)C(=O)N[C@@]2(CCc4cc(OCCCC(F)(F)F)ccc42)C3)c1 [Compound I-179]
6,4.1,CS(=O)(=O)CC(=O)Nc1c2c(nn1CCCC(F)(F)F)C[C@@]1(CCc3cc(OCC(F)(F)F)cc(F)c31)NC2=O [Compound I-136]
7,9.65,Cc1ccc(-n2nc3c(c2NC(=O)CS(C)(=O)=O)C(=O)N[C@@]2(CCc4cc(OCC(F)(F)F)ccc42)C3)cc1C [Compound I-132]
8,480,Cn1cc(C(=O)Nc2c3c(nn2CCC2CC2)C[C@]2(CCc4cc(OCC(F)(F)F)ccc42)NC3=O)nn1 [Compound I-172]
9,78,CC(C)(C#N)C(=O)NCc1c2c(nn1CCC1CC1)C[C@]1(CCc3cc(OCC(F)(F)F)ccc31)NC2=O [Compound I-160]
10,320,CS(=O)(=O)CC(=O)Nc1c2c(nn1-c1ccccn1)C[C@](c1ccc(OCC(F)(F)F)cc1)(C(F)(F)F)NC2=O [Compound I-103]
11,68,O=C1N[C@@]2(CCc3cc(OCC(F)(F)F)ccc32)Cc2nn(CCC3CC3)c(NC(=O)C3CC(F)(F)C3)c21 [Compound I-184]
12,14,CS(=O)(=O)CC(=O)Nc1c2c(nn1CCn1cccn1)C[C@]1(CCc3cc(OCCCC(F)(F)F)ccc31)NC2=O [Compound I-59]
13,33,O=C1N[C@@]2(CCc3cc(OCC(F)(F)F)ccc32)Cc2nn(CCC3CC3)c(C(=O)NCC3(O)CCC3)c21 [Compound I-90]
14,3.9,CS(=O)(=O)CC(=O)Nc1c2c(nn1-c1ccc(C#N)cc1)C[C@]1(CCc3cc(OCCCC(F)(F)F)ccc31)NC2=O [Compound I-44]
15,27,CS(=O)(=O)CC(=O)Nc1c2c(nn1CCC1CC1)C[C@]1(CCc3cc(Br)ccc31)NC2=O [Compound I-36]

# Same assay, conditions: read-out: IC50 (concentration exhibiting 50% enzyme inhibition), Table 53
row,IC50 [nM],SMILES
1,6.43,CCOc1ccc2c(c1)OCC[C@]21Cc2nn(-c3ccc(C)cn3)c(NC(=O)CS(C)(=O)=O)c2C(=O)N1 [II-145]
2,7.69,Cc1ccc(-n2nc3c(c2NC(=O)CS(C)(=O)=O)C(=O)N[C@@]2(CCc4cc(OC(C)C)ccc42)C3)nc1 [II-160]
3,5.58,Cc1ccc(-n2nc3c(c2NC(=O)CS(C)(=O)=O)C(=O)N[C@@]2(CCOc4cc(N5CC(F)(F)C5)ccc42)C3)nc1 [II-154]
4,1.72,CS(=O)(=O)CC(=O)Nc1c2c(nn1-c1ccc(C(F)(F)F)nn1)C[C@]1(CCc3cc(OCC(F)(F)F)ccc31)NC2=O [II-106]
5,7.42,Cc1ccc(-n2nc3c(c2NC(=O)CS(C)(=O)=O)C(=O)N[C@@]2(CCc4cc(OCC(F)(F)F)ccc42)C3)cc1F [II-136]
6,98,COC(=O)CC1CN(c2ccc3c(c2)CC[C@@]32Cc3nn(CCC4CC4)c(NC(=O)CS(C)(=O)=O)c3C(=O)N2)C1 [II-45]
7,2.76,O=C1N[C@]2(CCOc3cc(OCC(F)(F)F)ccc32)Cc2nn(CCCOC(F)(F)F)c(NC(=O)C3CS(=O)(=O)C3)c21 [II-293]
8,28.7,CNC(=O)CNC(=O)c1c2c(nn1-c1ccc(C#N)cn1)C[C@]1(CCc3cc(OCC(F)(F)F)ccc31)NC2=O [II-181]
9,2.3,CS(=O)(=O)CC(=O)Nc1c2c(nn1-c1ccc(C#N)cn1)CC1(CN(c3c(F)cc(C(F)(F)F)cc3F)C1)NC2=O [II-74]
10,42,C[S+]([O-])CC(=O)Nc1c2c(nn1CCC1CC1)C[C@]1(CCc3cc(OCC(F)(F)F)ccc31)NC2=O (stereo partly drawn) [II-39]
11,6.19,Cc1ccc(-n2nc3c(c2NC(=O)CS(C)(=O)=O)C(=O)N[C@@]2(CCc4cc(Cl)ccc42)C3)nn1 [II-307]
12,53,CS(=O)(=O)CC(=O)Nc1c2c(nn1CCC1CC1)C[C@@]1(CCc3cc(N4CC5(CCOCC5)C4)ccc31)NC2=O [II-36]
13,428,COCCS(=O)(=O)NC(=O)c1c2c(nn1-c1ccc(C#N)cn1)C[C@]1(CCc3cc(OCC(F)(F)F)ccc31)NC2=O [II-216]
14,45,CS(=O)(=O)CC(=O)Nc1c2c(nn1-c1ccc(C#N)cn1)CC1(CN(c3nc(C(F)(F)F)cs3)C1)NC2=O [II-78]
15,30.4,N#Cc1ccc(-n2nc3c(c2C(=O)NC2(C#N)CC2)C(=O)N[C@@]2(CCc4cc(OCC(F)(F)F)ccc42)C3)nc1 [II-110]
16,3.83,Cc1ccc(-n2nc3c(c2NC(=O)CS(C)(=O)=O)C(=O)N[C@@]2(CCc4cc(OCC(C)(F)F)ccc42)C3)nc1 [II-157]

row,IC50 [nM],SMILES
1,7.55,Cc1ccc(-n2nc3c(c2NC(=O)CS(C)(=O)=O)C(=O)N[C@@]2(CCc4cc(Cl)ccc42)C3)nc1 [II-164]
2,9.59,CS(=O)(=O)CC(=O)Nc1c2c(nn1CCC1CC1)C[C@@]1(CCc3cc(OCCOCC(F)F)ccc31)NC2=O [II-99]
3,0.285,CS(=O)(=O)CC(=O)Nc1c2c(nn1-c1ccc(C(F)F)nn1)C[C@]1(CCc3cc(OCCCC(F)(F)F)ccc31)NC2=O [II-258]
4,7.02,CCOc1ccc2c(c1)CC[C@]21Cc2nn(-c3ccc(C)cn3)c(NC(=O)CS(C)(=O)=O)c2C(=O)N1 [II-159]
5,89.2,Cc1ccc(-n2nc3c(c2C(=O)NS(=O)(=O)c2ccccc2)C(=O)N[C@@]2(CCc4cc(OCC(F)(F)F)ccc42)C3)nc1 [II-210]
6,2.92,CC1(CNC(=O)c2c3c(nn2-c2ccc(C#N)cn2)C[C@]2(CCc4cc(OCC(F)(F)F)ccc42)NC3=O)COC1 [II-186]
7,1.06,CCS(=O)(=O)CC(=O)Nc1c2c(nn1CCCOC(F)(F)F)C[C@@]1(CCOc3cc(OCC(F)(F)F)ccc31)NC2=O [II-289]
8,1.98,Cc1cc(-n2nc3c(c2NC(=O)CS(C)(=O)=O)C(=O)N[C@@]2(CCc4cc(CCC(F)(F)F)ccc42)C3)nn1C [II-299]
9,51,COC1(C)CN(c2ccc3c(c2)CC[C@@]32Cc3nn(CCC4CC4)c(NC(=O)CS(C)(=O)=O)c3C(=O)N2)C1 [II-44]
10,3.63,Cc1cc(-n2nc3c(c2NC(=O)CS(C)(=O)=O)C(=O)N[C@](C)(c2ccc(OCC(F)(F)F)cc2F)C3)no1 [II-167]
11,50.8,CS(=O)(=O)CCNC(=O)c1c2c(nn1-c1ccc(C#N)cn1)C[C@]1(CCc3cc(OCC(F)(F)F)ccc31)NC2=O [II-111]
12,28.2,N#Cc1ccc(-n2nc3c(c2C(=O)NCCSC(F)(F)F)C(=O)N[C@@]2(CCc4cc(OCC(F)(F)F)ccc42)C3)nc1 [II-185]
13,5.5,CS(=O)(=O)CC(=O)Nc1c2c(nn1CCC1CC1)C[C@@]1(CCc3cc(OCC(F)F)ccc31)NC2=O [II-77]
14,5.67,Cc1ccc(-n2nc3c(c2NC(=O)CS(C)(=O)=O)C(=O)N[C@@](c2ccc(OCC(F)(F)F)cc2F)(C(F)(F)F)C3)nc1 [II-162]
15,10.1,Cc1cc(-n2nc3c(c2C(=O)NCC#N)C(=O)N[C@@]2(CCc4cc(OCC(F)(F)F)ccc42)C3)no1 [II-251]
16,10.1,N#Cc1ccc(-n2nc3c(c2C(=O)NCC2CC2)C(=O)N[C@@]2(CCc4cc(OCC(F)(F)F)ccc42)C3)nc1 [II-179]
